The text below walks through data of patent US5436254A, “Carbostyril derivatives” (Otsuka Pharmaceutical Company, Ltd., priority 1989, dated 1995).

As a reminder, the pIC50 is the IC50 on a negative log10 scale, so that one unit is a factor of ten.

pIC50: −log10 of the molar value.

The target of the first assay is V1 receptor (Rattus norvegicus, UniProt P30560). The assay can be described thus: biochemical. The assay is classed as binding.
V1 receptor, sequence (P30560 whole entry): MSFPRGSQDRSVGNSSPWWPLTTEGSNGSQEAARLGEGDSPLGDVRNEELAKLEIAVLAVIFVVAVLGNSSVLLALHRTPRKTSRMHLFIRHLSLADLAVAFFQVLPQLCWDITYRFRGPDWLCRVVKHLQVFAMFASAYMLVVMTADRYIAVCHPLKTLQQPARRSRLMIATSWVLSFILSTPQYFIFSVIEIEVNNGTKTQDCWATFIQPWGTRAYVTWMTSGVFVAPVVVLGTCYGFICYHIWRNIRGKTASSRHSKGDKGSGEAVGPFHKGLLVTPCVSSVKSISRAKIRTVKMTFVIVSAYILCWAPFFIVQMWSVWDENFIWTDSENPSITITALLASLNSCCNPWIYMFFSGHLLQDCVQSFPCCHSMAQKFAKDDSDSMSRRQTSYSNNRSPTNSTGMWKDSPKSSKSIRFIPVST
Conditions: not given
Regarding `NC(=O)CCCCOc1ccc(C(=O)N2CCC(N3C(=O)CCc4ccccc43)CC2)cc1` [Example 3, 1-{1-[4-(4-Carbamoylbutoxy)benzoyl]-4-piperidinyl}-3,4-dihydrocarbostyril], the pIC50 is 6.48.
Still for that read-out and setting: under `NC(=O)CNC(=O)CCCCOc1ccc(C(=O)N2CCC(N3C(=O)CCc4ccccc43)CC2)cc1` [Example 4, 1-{1-[4-(4-Carbamoylmethylaminocarbonylbutoxy)benzoyl]-4-piperidinyl}-3,4-dihydrocarbostyril] stands 6.62.
`N#CCCCOc1ccc(C(=O)N2CCC(N3C(=O)CCc4ccccc43)CC2)cc1` [Example 5, 1-{1-[4-(3-Cyanopropoxy)benzoyl]-4-piperidinyl}-3,4-dihydrocarbostyril] had a pIC50 of 6.31.
Same read-out and setting: the figure for `N=C(N)CCCOc1ccc(C(=O)N2CCC(N3C(=O)CCc4ccccc43)CC2)cc1` [Example 6, 1-{1-[4-(3-Amidinopropoxy)benzoyl]-4-piperidinyl}-3,4-dihydrocarbostyril] is 6.33; for `NC(=O)CCCOc1ccc(C(=O)N2CCC(N3C(=O)CCc4ccccc43)CC2)cc1` [Example 7, 1-{1-[4-(3-Carbamoylpropoxy)benzoyl]-4-piperidinyl}-3,4-dihydrocarbostyril] it is 6.51.
For the compound `CCOC(=O)CNC(=O)CCCOc1ccc(C(=O)N2CCC(N3C(=O)CCc4ccccc43)CC2)cc1` [Example 8, 1-{1-[4-(3-Ethoxycarbonylmethylaminocarbonylpropoxy)benzoyl]-4-piperidinyl}-3,4-dihydrocarbostyril], the pIC50 was 6.52.
Still for that read-out and setting: under `NC(=O)CNC(=O)CCCOc1ccc(C(=O)N2CCC(N3C(=O)CCc4ccccc43)CC2)cc1` [Example 9, 1-{1-[4-(3-Carbamoylmethylaminocarbonylpropoxy)benzoyl]-4-piperidinyl}-3,4-dihydrocarbostyril] stands 6.46; under `COC(=O)[C@H](CO)NC(=O)CCCOc1ccc(C(=O)N2CCC(N3C(=O)CCc4ccccc43)CC2)cc1` [Example 10, Methyl N-[4-{4-[4-(1,2,3,4-tetrahydro-2-oxo-1-quinolyl)-1-piperidinylcarbonyl]phenoxy}]butanoyl-L-serinate], 6.49; under `COC(=O)[C@H](C)NC(=O)CCCOc1ccc(C(=O)N2CCC(N3C(=O)CCc4ccccc43)CC2)cc1` [Example 11, Methyl N-[4-{4-[4-(1,2,3,4-tetrahydro-2-oxo-1-quinolyl)-1-piperidinylcarbonyl]phenoxy}]butanoyl-L-alanate], 6.52.
`NC(=O)CCCCCOc1ccc(C(=O)N2CCC(N3C(=O)CCc4ccccc43)CC2)cc1` [Example 12, 1-{1-[4-(5-Carbamoylpentyloxy)benzoyl]-4-piperidinyl}-3,4-dihydrocarbostyril] had a negative-log IC50 (pIC50) of 6.64.
Compound `CCOC(=O)CNC(=O)CCCCCOc1ccc(C(=O)N2CCC(N3C(=O)CCc4ccccc43)CC2)cc1` [Example 13, 1-{1-[4-(5-Ethoxycarbonylmethylaminocarbonylpentyloxy)benzoyl]-4-piperidinyl}-3,4-dihydrocarbostyril] showed a pIC50 of 6.55.
On the same count and under the same terms, under `NC(=O)CNC(=O)CCCCCOc1ccc(C(=O)N2CCC(N3C(=O)CCc4ccccc43)CC2)cc1` [Example 14, 1-{1-[4-(5-Carbamoylmethylaminocarbonylpentyloxy)benzoyl]-4-piperidinyl}-3,4-dihydrocarbostyril] stands 6.80.

Staying with this assay, now noted: [H]3-Arg-vasopressin 2×10^-10 M, rat liver plasma membrane, 37° C., 10 minutes, pH 8.0; read-out: IC50.
Regarding “1-[1-(4-Propargylbenzoyl)-4-piperidinyl]-3,4-dihydrocarbostyril [Example 96]”, the pIC50 was 6.22.
For the compound “1-{1-[4-(6-(1-Methyl-5-oxo-3-morpholino)hexyloxy)benzoyl]-4-piperidinyl}-3,4-dihydrocarbostyril [Example 215]”, the pIC50 is 6.77.
Still for that read-out and setting: under “1-{1-[4-[4-(Benzimidazol-1-yl)thiobutoxy]benzoyl]-4-piperidinyl}-3,4-dihydrocarbostyril [Example 164]” stands 6.11.
